These results are taken from the supplement of paper PMC4862054.

Holding throughout (assay): normalised response (% of control), CellTiter-Glo; higher = more viable cells (100 = DMSO, 0 = benzethonium chloride kill control)
What all share (conditions): incubation time: 72 h

For experiment [1], the system named is CAL-51. How it is done:
(§1)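 DSRT, 72 h incubation, CellTox Green / CellTiter-Glo readout. Signal is normalised to DMSO and benzethonium chloride controls. Value is the normalised response at the highest dose.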

For experiment [2], the system named is CAL-120. How it is done:
as §1

The subject of experiment [3] is MDA-MB-453. How it is done: as §1
Experiment [4] concerns SK-BR-3. The method, then:
as §1

Experiment [5] deals with MDA-MB-231. The method, then: as §1
Experiment [6] concerns HCC1143. The method, then: as §1
Experiment [7] concerns HCC1599. The method, then: as §1
The test system of experiment [8] is MCF-10A. The method, then:
as §1

The subject of experiment [9] is CAL-148. The method, then:
as §1

Experiment [10] has as its system MFM-223. How it is done:
as §1

Experiment [11] has as its system BT-549. How it is done: as §1
Experiment [12] relates to MDA-MB-468. How it is done:
as §1

Experiment [13] has as its system HCC1937. How it is done:
as §1

Experiment [14] relates to Hs578T. The method, then: as §1
Experiment [15] deals with DU-4475. How it is done: as §1

In the case of `COc1cccc2cc(-c3nc([C@H]4CC[C@H](C(=O)O)CC4)n4ncnc(N)c34)[nH]c12` [OSI-027] (10000 nM), the normalised response turned out to be 38% in [1]; 30.1% in experiment [2]; 32.2% in experiment [3]; 22.9% in experiment [4]; 45.7% in experiment [5]; 46.5% in experiment [6]. In addition, the normalised response in experiment [7] amounted to 74.2%; in experiment [8], 30.5%; in [9] it was 39.2%; in experiment [10], 28.5%; in experiment [11] it was 24.8%; in [12], 33.4%. The normalised response in [13] stood at 47.6%; in experiment [14] it was 33.4%; in [15], 61.2%.
In the case of `OC[C@H]1O[C@@H](n2cnc3c2N=CNC[C@H]3O)C[C@@H]1O` [Pentostatin] (10000 nM), the normalised response in [1] came out at 90.2%; in experiment [2], 101%; in experiment [3], 110%; in experiment [4], 104%; in experiment [5], 103%; in experiment [6], 99.1%. Besides, the normalised response amounted to 108% in [7]; 106% in [8]; 105% in experiment [9]; 99.3% in [10]; 92.5% in [11]; 103% in experiment [12]. The normalised response in [13] is 98.9%; in experiment [14], 98%; in [15] it was 99.8%.
As to `N#CC[C@H](C1CCCC1)n1cc(-c2ncnc3[nH]ccc23)cn1` [Ruxolitinib] (10000 nM), the normalised response amounted to 88.9% in experiment [1]; 77.7% in [2]; 87.6% in experiment [3]; 91.5% in [4]; 86% in [5]; 93.3% in experiment [6]. Further, the normalised response in [7] turned out to be 94.4%; in [8], 72.5%; in [9] it was 98.2%; in experiment [10], 73.2%; in experiment [11], 101%; in experiment [12], 88.7%. Also, the normalised response was 96.9% in experiment [13], 102% in experiment [14] and 98.4% in experiment [15].
For `C=CC[C@@H]1/C=C(\C)C[C@H](C)C[C@H](OC)[C@H]2O[C@@](O)(C(=O)C(=O)N3CCCC[C@H]3C(=O)O[C@H](/C(C)=C/[C@@H]3CC[C@@H](O)[C@H](OC)C3)[C@H](C)[C@@H](O)CC1=O)[C@H](C)C[C@@H]2OC` [Tacrolimus] (10000 nM), the normalised response in experiment [1] was found to be 104%; in [2] it was 105%; in experiment [3], 101%; in experiment [4] it was 89.3%; in experiment [5], 91.5%; in [6], 86.8%. Further, the normalised response in experiment [7] turned out to be 119%; in [8], 103%; in [9], 103%; in experiment [10], 81.2%; in experiment [11] it was 90.8%; in experiment [12] it was 85.4%. Further, the values for the normalised response in experiment [13], in experiment [14] and in experiment [15] were 94.3%, 94.5% and 103%, respectively.
On to `C=CCNC1=C2C[C@@H](C)C[C@H](OC)[C@H](O)[C@@H](C)/C=C(\C)[C@H](OC(N)=O)[C@@H](OC)/C=C\C=C(/C)C(=O)NC(=CC1=O)C2=O` [Tanespimycin] (10000 nM), for which the normalised response in experiment [1] worked out at 14.9%; in experiment [2] it was 42.3%; in experiment [3], 28.6%; in experiment [4] it was 37.1%; in experiment [5], 15.5%; in experiment [6], 32.6%. In addition, the normalised response is 54.5% in experiment [7]; 14% in experiment [8]; 25% in [9]; 38.1% in [10]; 35.5% in experiment [11]; 25.5% in experiment [12]. Besides, the normalised response in [13] was 34%; in experiment [14], 34.2%; in experiment [15], -0.09%.
With `CO[C@H]1C[C@@H]2CC[C@@H](C)[C@@](O)(O2)C(=O)C(=O)N2CCCC[C@H]2C(=O)O[C@H]([C@H](C)C[C@@H]2CC[C@@H](OC(=O)C(C)(CO)CO)[C@H](OC)C2)CC(=O)[C@H](C)/C=C(\C)[C@@H](O)[C@@H](OC)C(=O)[C@H](C)C[C@H](C)/C=C/C=C/C=C/1C` [Temsirolimus] (100 nM), the normalised response in experiment [1] was found to be 61%; in [2], 65.4%; in experiment [3], 58.9%; in experiment [4], 53%; in experiment [5] it was 90.2%; in experiment [6] it was 65.2%. Moreover, the normalised response in experiment [7] amounted to 90.8%; in experiment [8], 88.6%; in experiment [9] it was 58.1%; in [10], 67.7%; in [11] it was 56.3%; in experiment [12], 56.9%. The normalised response in experiment [13] is 66.8%; in experiment [14] it was 67.1%; in experiment [15], 73.6%.
Consider `C[C@]1(c2nc3c(C(N)=O)cccc3[nH]2)CCCN1` [Veliparib] (10000 nM), for which the normalised response in experiment [1] is 96.1%; in [2], 93.1%; in [3] it was 121%; in experiment [4], 90.9%; in experiment [5] it was 93.3%; in experiment [6], 91.6%. In addition, the normalised response stood at 77.1% in experiment [7]; 97.3% in experiment [8]; 99.2% in experiment [9]; 97.3% in experiment [10]; 95.7% in experiment [11]; 75.5% in experiment [12]. Further, the values for the normalised response in experiment [13], in [14] and in experiment [15] were 93.6%, 98.9% and 96.8%, respectively.
`CC[C@]1(O)C[C@@H]2CN(CCc3c([nH]c4ccccc34)[C@@](C(=O)OC)(c3cc4c(cc3OC)N(C)[C@H]3[C@@](O)(C(=O)OC)[C@H](OC(C)=O)[C@]5(CC)C=CCN6CC[C@]43[C@@H]65)C2)C1` [Vinblastine] (1000 nM): the normalised response in [1] amounted to 23.9%; in experiment [2], 59.1%; in experiment [3] it was 64.7%; in experiment [4], 17.6%; in experiment [5], 43.4%; in [6], 50.2%. Further, the normalised response in [7] was 12.6%; in experiment [8] it was 71.6%; in [9], 55.3%; in experiment [10], 44.6%; in experiment [11] it was 34.3%; in [12], 33.9%. Also, the normalised response amounted to 69.3% in experiment [13], 15.3% in [14] and 37.8% in experiment [15].
Take `CS(=O)(=O)c1ccc(C(=O)Nc2ccc(Cl)c(-c3ccccn3)c2)c(Cl)c1` [Vismodegib] (10000 nM): the normalised response stood at 97.8% in experiment [1]; 99.3% in experiment [2]; 87.9% in experiment [3]; 87.3% in experiment [4]; 98% in [5]; 89.9% in [6]. Moreover, the normalised response in experiment [7] came to 88.8%; in experiment [8], 93.9%; in experiment [9], 86.5%; in experiment [10], 91.4%; in [11], 102%; in experiment [12], 97.2%. Also, the normalised response in [13] is 90%; in [14], 99.5%; in experiment [15], 97.8%.
